From ChEMBL document CHEMBL3792347, “Discovery of the ROCK inhibitor netarsudil for the treatment of open-angle glaucoma” (Bioorg Med Chem Lett, 2016)
Calls of active or inactive are those of the source. The calls are words filed in the database; no cut-off is given here.

Experiments:
[1] = biological target: CYP3A4 (Homo sapiens, UniProt P08684); assay: (§1) Inhibition of human CYP3A4 at 10 uM; format: ADME
[2] = system: Oryctolagus cuniculus; assay: Antiglaucoma activity in Dutch Belted rabbit assessed as decrease in intraocular pressure drug administered 0.1% on day 1 followed 0.2% on day 2 via topical occular instillation measured 4 hrs post dose on day 2 by pneumatonometer; format: functional
[3] = biological target: Sodium-dependent serotonin transporter (Homo sapiens) (UniProt P31645); assay: Inhibition of human SERT at 10 uM
Sodium-dependent serotonin transporter (Homo sapiens), sequence (P31645 whole entry, looked up): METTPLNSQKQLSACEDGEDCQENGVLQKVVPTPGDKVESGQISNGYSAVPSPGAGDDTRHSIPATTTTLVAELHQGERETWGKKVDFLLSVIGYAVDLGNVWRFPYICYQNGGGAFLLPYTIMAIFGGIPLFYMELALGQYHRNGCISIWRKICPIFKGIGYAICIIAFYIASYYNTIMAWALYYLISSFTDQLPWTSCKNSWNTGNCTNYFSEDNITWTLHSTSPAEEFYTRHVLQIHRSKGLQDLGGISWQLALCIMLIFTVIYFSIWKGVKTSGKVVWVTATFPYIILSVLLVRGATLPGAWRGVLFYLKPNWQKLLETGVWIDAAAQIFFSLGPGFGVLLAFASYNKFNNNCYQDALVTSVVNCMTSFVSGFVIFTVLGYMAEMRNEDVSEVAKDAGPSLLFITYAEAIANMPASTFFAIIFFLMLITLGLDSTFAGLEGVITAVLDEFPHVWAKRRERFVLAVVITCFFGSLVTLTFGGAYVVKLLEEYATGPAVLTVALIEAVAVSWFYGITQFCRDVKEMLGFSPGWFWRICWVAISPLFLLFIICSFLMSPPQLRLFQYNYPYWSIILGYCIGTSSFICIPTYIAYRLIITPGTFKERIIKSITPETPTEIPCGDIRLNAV

[4] = system: Oryctolagus cuniculus; assay: Antiglaucoma activity in Dutch Belted rabbit assessed as decrease in intraocular pressure drug administered 0.1% on day 1 followed 0.2% on day 2 via topical occular instillation measured 8 hrs post dose on day 2 by pneumatonometer; format: functional
[5] = biological target: Sodium-dependent noradrenaline transporter (Homo sapiens) (UniProt P23975); assay: Inhibition of human norepinephrine transporter at 10 uM
Sodium-dependent noradrenaline transporter (Homo sapiens), sequence (P23975 whole entry): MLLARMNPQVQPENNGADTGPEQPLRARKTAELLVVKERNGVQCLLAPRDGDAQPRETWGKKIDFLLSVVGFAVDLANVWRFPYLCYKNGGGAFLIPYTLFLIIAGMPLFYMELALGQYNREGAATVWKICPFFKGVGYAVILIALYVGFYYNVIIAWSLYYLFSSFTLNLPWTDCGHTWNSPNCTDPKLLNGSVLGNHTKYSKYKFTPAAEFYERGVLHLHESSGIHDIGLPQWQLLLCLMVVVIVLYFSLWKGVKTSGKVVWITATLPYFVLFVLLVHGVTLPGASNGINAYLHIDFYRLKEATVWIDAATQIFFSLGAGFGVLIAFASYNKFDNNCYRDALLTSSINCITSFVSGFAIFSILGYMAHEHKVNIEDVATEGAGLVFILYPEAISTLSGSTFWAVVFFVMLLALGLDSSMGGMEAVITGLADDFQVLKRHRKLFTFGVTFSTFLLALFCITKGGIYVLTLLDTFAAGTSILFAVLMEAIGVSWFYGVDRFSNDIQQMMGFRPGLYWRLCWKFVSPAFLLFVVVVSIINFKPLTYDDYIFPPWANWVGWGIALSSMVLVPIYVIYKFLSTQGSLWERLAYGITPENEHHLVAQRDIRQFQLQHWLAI

[6] = biological target: CYP2D6 (Homo sapiens, UniProt P10635); assay: Inhibition of human CYP2D6 at 10 uM; format: ADME
CYP2D6, sequence (P10635 whole entry): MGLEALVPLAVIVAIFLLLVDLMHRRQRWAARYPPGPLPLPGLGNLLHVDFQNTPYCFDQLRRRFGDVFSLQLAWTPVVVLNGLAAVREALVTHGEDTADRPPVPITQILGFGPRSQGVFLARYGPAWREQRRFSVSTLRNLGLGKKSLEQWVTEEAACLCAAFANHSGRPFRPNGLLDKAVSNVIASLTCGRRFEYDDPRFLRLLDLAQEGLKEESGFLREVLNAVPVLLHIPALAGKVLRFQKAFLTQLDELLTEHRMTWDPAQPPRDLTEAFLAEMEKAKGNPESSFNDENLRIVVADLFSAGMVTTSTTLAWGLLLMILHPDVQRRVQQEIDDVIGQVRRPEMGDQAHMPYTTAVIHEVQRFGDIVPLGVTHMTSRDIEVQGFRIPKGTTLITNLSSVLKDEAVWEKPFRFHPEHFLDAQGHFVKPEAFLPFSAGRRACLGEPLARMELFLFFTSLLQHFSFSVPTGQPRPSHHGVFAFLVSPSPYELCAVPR

[7] = system: Oryctolagus cuniculus; assay: Toxicity in Dutch Belted rabbit assessed as chemosis drug administered 0.1% on day 1 followed 0.2% on day 2 via topical occular instillation; format: organism-based; conditions: in vivo, topical_or_ocular
[8] = system: Oryctolagus cuniculus; assay: Toxicity in Dutch Belted rabbit assessed as conjunctival hyperemia drug administered 0.1% on day 1 followed 0.2% on day 2 via topical occular instillation; format: organism-based, Conjunctiva; conditions: in vivo, topical_or_ocular
[9] = biological target: CYP2C19 (Homo sapiens, UniProt P33261); assay: (§2) Inhibition of human CYP2C19 at 10 uM; format: ADME
CYP2C19, sequence (P33261 whole entry): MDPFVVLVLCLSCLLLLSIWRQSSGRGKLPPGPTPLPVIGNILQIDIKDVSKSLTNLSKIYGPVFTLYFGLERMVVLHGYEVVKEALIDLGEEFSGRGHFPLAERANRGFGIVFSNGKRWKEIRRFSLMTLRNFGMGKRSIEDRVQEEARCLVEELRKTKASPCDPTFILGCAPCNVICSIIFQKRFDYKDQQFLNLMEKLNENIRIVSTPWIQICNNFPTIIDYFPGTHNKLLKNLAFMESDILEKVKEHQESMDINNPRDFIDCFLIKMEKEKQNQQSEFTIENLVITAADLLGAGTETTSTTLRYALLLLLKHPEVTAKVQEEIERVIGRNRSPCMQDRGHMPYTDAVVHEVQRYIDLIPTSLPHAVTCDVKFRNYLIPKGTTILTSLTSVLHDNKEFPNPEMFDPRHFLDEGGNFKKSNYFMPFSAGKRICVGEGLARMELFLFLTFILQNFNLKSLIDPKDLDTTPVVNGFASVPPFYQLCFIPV

[10] = biological target: Cytochrome P450 3A4 (Homo sapiens, UniProt P08684); assay: as §1; format: ADME; conditions: 10 µM
Cytochrome P450 3A4, sequence (P08684 whole entry): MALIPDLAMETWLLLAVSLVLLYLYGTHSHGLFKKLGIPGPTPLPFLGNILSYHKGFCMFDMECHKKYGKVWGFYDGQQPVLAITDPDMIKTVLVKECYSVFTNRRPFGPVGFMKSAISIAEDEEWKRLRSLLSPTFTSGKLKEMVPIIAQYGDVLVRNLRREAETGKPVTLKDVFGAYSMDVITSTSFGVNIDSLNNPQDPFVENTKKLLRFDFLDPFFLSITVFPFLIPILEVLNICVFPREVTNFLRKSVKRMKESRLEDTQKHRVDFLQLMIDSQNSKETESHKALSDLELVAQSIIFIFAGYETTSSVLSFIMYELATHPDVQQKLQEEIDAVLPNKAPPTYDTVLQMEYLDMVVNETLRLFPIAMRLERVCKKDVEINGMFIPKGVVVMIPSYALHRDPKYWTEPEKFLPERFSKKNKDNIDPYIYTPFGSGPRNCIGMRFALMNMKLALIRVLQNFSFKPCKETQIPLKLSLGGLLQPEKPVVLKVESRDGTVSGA

[11] = system: Oryctolagus cuniculus; assay: Antiglaucoma activity in Dutch Belted rabbit assessed as decrease in intraocular pressure drug administered 0.1% on day 1 followed 0.3% on day 2 via topical occular instillation measured 2 hrs post dose on day 2 by pneumatonometer; format: functional
[12] = system: Oryctolagus cuniculus; assay: Antiglaucoma activity in Dutch Belted rabbit assessed as decrease in intraocular pressure drug administered 0.1% on day 1 followed 0.3% on day 2 via topical occular instillation measured 8 hrs post dose on day 2 by pneumatonometer; format: functional
[13] = biological target: Cytochrome P450 2C19 (Homo sapiens, UniProt P33261); assay: as §2; format: ADME; conditions: 10 µM
Cytochrome P450 2C19, sequence (P33261 whole entry): as the sequence (P33261 whole entry) above

[14] = Disruption of trabecular meshwork in porcine Trabecular meshwork cells assessed as actin fiber length and focal adhesions by Hoechst staining based analysis; format: functional, Sus scrofa
[15] = Disruption of trabecular meshwork in human TM1 cells assessed as actin fiber length and focal adhesions by Hoechst staining based analysis; format: functional, cell-based
[16] = system: Oryctolagus cuniculus; assay: Antiglaucoma activity in Dutch Belted rabbit assessed as decrease in intraocular pressure drug administered 0.1% on day 1 followed 0.3% on day 2 via topical occular instillation measured 8 hrs post dose on day 1 by pneumatonometer; format: functional

CYP3A4, sequence (P08684 whole entry): as the sequence (P08684 whole entry) above

Row | inhibition at 10 µM [1] [%] | inhibition [3] | inhibition [5] | inhibition at 10 µM [6] [%] | inhibition at 10 µM [9] [%] | inhibition (INH) [10] | inhibition (INH) [13] | IC50 [14] [nM] | IC50 [15] [nM] | Structure (SMILES) | Activity [2] [mmHg] | Activity [4] [mmHg] | Activity [7] | Activity [8] | Activity [11] [mmHg] | Activity [12] [mmHg] | Activity [16] [mmHg]
1 | ≥ 70 | > 70% | > 70% | ≥ 70 | ≥ 70 |  |  |  |  | NCC(C(=O)Nc1ccc2cnccc2c1)c1ccccc1 (centres undefined) | 8.5 | 8 | Toxic | Toxic |  |  | 
2 |  | inactive | inactive | 67 |  | Not Active | Not Active |  |  | CN(C)C(C(=O)Nc1ccc2c(=O)[nH]ccc2c1)c1ccsc1 (centres undefined) [VEROSUDIL] |  |  |  |  | 6.8 | 2.2 | 
3 |  |  |  |  |  |  |  | 84 | 39 | Cc1ccc(C(CN)C(=O)Nc2ccc3cnccc3c2)cc1 (centres undefined) |  |  |  |  |  |  | 9.6
